Data set [1] relates to methicillin-resistant S. aureus MRSA-1. The data set is described as follows: Antimicrobial activity, serial dilution technique in Mueller–Hinton Broth 2. The class given is cell-based, Staphylococcus aureus. As to conditions: - means non-active; for MIC: read-out: Minimum Inhibitory Concentration (MIC), MRSA-1. A digest of the protocol: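 Antimicrobial activity against methicillin-susceptible Staphylococcus aureus MRSA-1, a hospital isolate from a chronic tonsillitis patient that is resistant to fluoroquinolones and beta-lactams, was determined by serial dilution in Mueller–Hinton Broth 2. The bacterial load was 3.0 × 10^5 cfu/mL, incubation was at 37 °C, and growth was recorded every 24 h for 5 days.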

Data set [2] concerns Escherichia coli ATCC 25922. The description is as above. Type of data set: cell-based. As to conditions: average of three ± SD, - means non-active; for MBC: Escherichia coli, ATCC25922, Ec, read-out: Minimum Bactericidal and Fungicidal Concentration (MBC, MFC), Ec.
A further data set has as its system human erythrocytes. Description: Hemolytic activity. Type of data set: cell-based. The note with it: red blood cells. The text has this: An important characteristic when assessing the biological activity of new chemical compounds is their cytotoxic effect on eukaryotic cells. The ability of an investigated compound to cause the destruction of human erythrocytes illustrates its toxic effect on the internal environment. The hemolysis assay is a simple screening test that can help in the study of cytotoxicity in more complex models. Cell lines obtained from various human organs and tissues that allow for adequate estimation of the effects of new potential drugs on cell metabolism can serve as experimental models.
The hemolytic activity of the QPSs was estimated by comparing the optical density of a solution containing the test compound with that of blood at 100% hemolysis. The experiments were carried out as previously described.

Data set [3] has as its system Staphylococcus aureus ATCC 6538P FDA 209P. The data set is described as follows: Antimicrobial activity, serial dilution technique in Mueller–Hinton Broth 2. The note with it: average of three ± SD, - means non-active. Type of data set: cell-based. In a few lines: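 Antimicrobial activity against Staphylococcus aureus ATCC 6538P FDA 209P was measured by serial dilution in Mueller–Hinton Broth 2 at a bacterial load of 3.0 × 10^5 cfu/mL. Cultures were incubated at 37 °C, growth was recorded every 24 h for 5 days, and the experiment was done three times.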

For data set [4], the system named is Enterococcus faecalis ATCC 2921. Described as above. Type of data set: cell-based. As to conditions: average of three ± SD, - means non-active; for MBC / MIC: Enterococcus faecalis, ATCC2921, Ef; for MBC: read-out: Minimum Bactericidal and Fungicidal Concentration (MBC, MFC), Ef; for MIC: read-out: Minimum Inhibitory Concentration (MIC), Ef. In a few lines:
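Antibacterial activity against Enterococcus faecalis ATCC 2921 was assessed by serial dilution in Mueller–Hinton Broth 2 with a bacterial load of 3.0 × 10^5 cfu/mL. Cultures were incubated at 37 °C, with growth recorded every 24 h for 5 days, and the experiment was performed three times.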

Data set [5] has as its system Bacillus cereus ATCC 10702 NCTC 8035. The description is as above. The class given is cell-based. As to conditions: average of three ± SD, - means non-active. A digest of the protocol:
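Antibacterial activity against Bacillus cereus ATCC 10702 NCTC 8035 was measured by serial dilution in Mueller–Hinton Broth 2 at a bacterial load of 3.0 × 10^5 cfu/mL. Cultures were kept at 37 °C and growth was read every 24 h for 5 days. The experiment was done three times, and MIC and bactericidal concentrations were determined.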

In data set [6] the test system is Escherichia coli ATCC 25922. Described as above. As to conditions: average of three ± SD, - means non-active; for MIC: Escherichia coli, ATCC25922, Ec, read-out: Minimum Inhibitory Concentration (MIC), Ec. Type of data set: cell-based. A digest of the protocol: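 Compounds were serially diluted in Mueller–Hinton Broth 2 and inoculated at 3.0 × 10^5 cfu/mL. Cultures were then incubated at 37 °C with growth recorded daily for 5 days. The MIC was taken as the minimum concentration inhibiting growth, from three experiments.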

Another data set deals with Chang liver cell line. Description: Cytotoxicity assay (Cytell Cell Imaging, DAPI/propidium iodide). The class given is cell-based, human. The note with it: for IC50: Homo sapiens, Chang liver, read-out: IC50 (concentration that causes the death of 50% of the cells), Chang liver cells.
The test system of data set [7] is Trichophyton mentagrophytes var. gypseum 1773. The data set is described as follows: Fungicidal activity, serial dilution technique. The note with it: Tm, average of three ± SD, - means non-active. Type of data set: cell-based. In a few lines:
(§1)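 Serial dilution in Mueller–Hinton Broth 2 with an inoculum of 3.0 × 10^5 cfu/mL, 37 °C, read every 24 h for 5 days; three repeats. MIC is the lowest concentration inhibiting visible growth of the test organism.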

The test system of data set [8] is Candida albicans ATCC 10231. The data set is described as follows: Fungicidal activity, serial dilution technique. Type of data set: cell-based. The note with it: average of three ± SD, - means non-active. A digest of the protocol: as §1
In data set [9] the test system is methicillin-resistant S. aureus MRSA-2. Description: Antimicrobial activity, serial dilution technique in Mueller–Hinton Broth 2. Type of data set: cell-based, Staphylococcus aureus. As to conditions: - means non-active. A digest of the protocol:
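Antimicrobial activity against methicillin-susceptible Staphylococcus aureus MRSA-2, a beta-lactam-resistant clinical isolate from a sinusitis patient at the Republican Clinical Hospital (Kazan), was assessed by serial dilution in Mueller–Hinton Broth 2. The inoculum was 3.0 × 10^5 cfu/mL. Cultures were incubated at 37 °C and read every 24 h for 5 days, in three repeat experiments.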

Setting [10] is: Staphylococcus aureus, MRSA, MRSA-1 (resistant to fluoroquinolones and beta-lactams).

The structures appear in SMILES notation.

Consider 3 compounds from article PMC8744835, “Sterically Hindered Quaternary Phosphonium Salts (QPSs): Antimicrobial Activity and Hemolytic and Cytotoxic Properties” (International Journal of Molecular Sciences, 2021).

Regarding `CCCCCCCCC[P+](C(C)(C)C)(C(C)(C)C)C(C)(C)C` [Compound 9a], the MIC in data set [1] (setting [10]) was determined as 7.8 µg/mL; in [3] (Staphylococcus aureus, Sa, read-out: Minimum Inhibitory Concentration (MIC), Sa) it was 7.8 µg/mL; in [4], 62.5 µg/mL; in data set [6] it was 125 µg/mL. Besides, the MBC in data set [2] was 125 µg/mL; in data set [3] (Staphylococcus aureus, Sa, read-out: Minimum Bactericidal and Fungicidal Concentration (MBC, MFC), Sa), 15.6 µg/mL; in data set [4] it was 125 µg/mL; in [5] (Bacillus cereus, Bc, read-out: Minimum Bactericidal and Fungicidal Concentration (MBC, MFC), Bc) it was 125 µg/mL. Also, the “HC50 (concentration that causes 50% hemolysis of erythrocytes)” value in the data set with human erythrocytes was more than 125 µg/mL. Besides, the IC50 with Chang liver cell line is more than 100 µg/mL.

As for `CCCCCCCCCC[P+](C(C)(C)C)(C(C)(C)C)C(C)(C)C` [Compound 10a], the MBC in data set [7] (Trichophyton mentagrophytes, read-out: Minimum Bactericidal and Fungicidal Concentration (MBC, MFC), Tm) stood at 125 ± 11 µg/mL; in data set [8] (Candida albicans, ATCC10231, Ca, read-out: Minimum Bactericidal and Fungicidal Concentration (MBC, MFC), Ca) it was 31.3 ± 2.3 µg/mL; in data set [9] (Staphylococcus aureus, MRSA, MRSA-2, read-out: Minimum Bactericidal and Fungicidal Concentration (MBC, MFC), MRSA-2), 3.9 ± 0.2 µg/mL; in data set [1] (Staphylococcus aureus, MRSA, MRSA-1, read-out: Minimum Bactericidal and Fungicidal Concentration (MBC, MFC), MRSA-1), 15.6 ± 1.2 µg/mL; in data set [2] it was 31.3 ± 2.6 µg/mL; in data set [4] it was 7.8 ± 0.6 µg/mL. Also, the MIC in data set [7] (Trichophyton mentagrophytes, read-out: Minimum Inhibitory Concentration (MIC), Tm) came to 125 ± 11 µg/mL; in [8] (Candida albicans, ATCC10231, Ca, read-out: Minimum Inhibitory Concentration (MIC), Ca), 31.3 ± 2.6 µg/mL; in [9] (Staphylococcus aureus, MRSA, MRSA-2 (resistant to beta-lactams), read-out: Minimum Inhibitory Concentration (MIC), MRSA-2), 3.9 ± 0.2 µg/mL; in data set [1] (setting [10]) it was 1.9 ± 0.1 µg/mL; in [4], 7.8 ± 0.6 µg/mL; in [5] (Bacillus cereus, Bc, read-out: Minimum Inhibitory Concentration (MIC), Bc), 3.9 ± 0.2 µg/mL. In data set [6], the MIC was 31.3 ± 2.7 µg/mL. In the data set with human erythrocytes, the “HC50 (concentration that causes 50% hemolysis of erythrocytes)” value is more than 125 µg/mL. For the same compound, the “Minimum Bactericidal and Fungicidal Concentration (MBC, MFC), Sa” value in data set [3] worked out at 1.9 ± 0.1 µg/mL. Moreover, the “Minimum Inhibitory Concentration (MIC), Sa” value in data set [3] was 1.9 ± 0.1 µg/mL. Further, the “Minimum Bactericidal and Fungicidal Concentration (MBC, MFC), Bc” value in data set [5] is given as 31.3 ± 2.5 µg/mL. The IC50 in the data set with Chang liver cell line was determined as 66 µg/mL.

For `CCCCCCCCCC[P+](C(C)(C)C)(C(C)(C)C)C(C)(C)C` [Compound 10b], in data set [7], the “Minimum Bactericidal and Fungicidal Concentration (MBC, MFC), Tm” value is 125 ± 10 µg/mL; the “Minimum Inhibitory Concentration (MIC), Tm” value amounted to 125 ± 10 µg/mL. Moreover, in [8] (Ca), the “Minimum Bactericidal and Fungicidal Concentration (MBC, MFC), Ca” value came out at 31.3 ± 2.2 µg/mL; the “Minimum Inhibitory Concentration (MIC), Ca” value turned out to be 31.3 ± 2.4 µg/mL. In addition, the “Minimum Inhibitory Concentration (MIC), MRSA-2” value in [9] (MRSA-2 (resistant to beta-lactams)) is on record as 3.9 ± 0.2 µg/mL. Also, the “Minimum Bactericidal and Fungicidal Concentration (MBC, MFC), MRSA-2” value in [9] (MRSA-2) is 7.8 ± 0.6 µg/mL. Also, the “Minimum Inhibitory Concentration (MIC), MRSA-1” value in [1] (MRSA-1 (resistant to fluoroquinolones and beta-lactams)) is reported as 1.9 ± 0.1 µg/mL. In addition, the “Minimum Bactericidal and Fungicidal Concentration (MBC, MFC), MRSA-1” value in data set [1] (MRSA-1) came out at 15.6 ± 1.3 µg/mL. In addition, in data set [2] (Ec), the “Minimum Bactericidal and Fungicidal Concentration (MBC, MFC), Ec” value is 62.5 ± 5.5 µg/mL. In addition, in the data set with human erythrocytes, the “HC50 (concentration that causes 50% hemolysis of erythrocytes)” value is more than 125 µg/mL. For the same compound, in [3], the “Minimum Bactericidal and Fungicidal Concentration (MBC, MFC), Sa” value is listed as 3.9 ± 0.2 µg/mL; the “Minimum Inhibitory Concentration (MIC), Sa” value is reported as 3.9 ± 0.2 µg/mL. Further, in data set [4] (Ef), the “Minimum Bactericidal and Fungicidal Concentration (MBC, MFC), Ef” value was 15.6 ± 1.2 µg/mL; the “Minimum Inhibitory Concentration (MIC), Ef” value is given as 15.6 ± 1.3 µg/mL. Also, in data set [5], the “Minimum Bactericidal and Fungicidal Concentration (MBC, MFC), Bc” value came out at 125 ± 9 µg/mL; the “Minimum Inhibitory Concentration (MIC), Bc” value is listed as 7.8 ± 0.6 µg/mL. Besides, the “Minimum Inhibitory Concentration (MIC), Ec” value in [6] (Ec) is recorded as 62.5 ± 5.4 µg/mL. Moreover, the “IC50 (concentration that causes the death of 50% of the cells)” value in the data set on Chang liver cell line (Chang liver cells) turned out to be 71 µg/mL.
